According to patent US20150351390A1, “COMPOSITIONS AND METHODS FOR AUXIN-ANALOG CONJUGATION” (PIONEER HI-BRED INTERNATIONAL, INC., priority 2012, published 2015):

Test system: soybean seedlings
Assay: Soybean seedling response to spot infiltrated auxins and conjugates; for 1st trifoliate leaf curl: key: 0 = no phenotype; +/− = threshold
Assay type: in vivo
Details: for 1st trifoliate leaf curl: spot infiltration

`O=C(O)COc1ccc(Cl)cc1Cl` [2,4-D, 2,4-dichlorophenoxyacetic acid] was tested, and the “1st trifoliate leaf curl” value (100 μM) was 0, the “1st trifoliate leaf curl” value (250 μM) was 0 and the “1st trifoliate leaf curl” value (500 μM) was 0. The “Plant response phenotype, soybean” value (100, 250 & 500 μM, result in words) was “increased auxinic response ranging from mild to extreme epinasty”.
